Reference: patent US10597388B2, “Pyridazinone herbicides” (FMC CORPORATION, priority 2014, dated 2020)

How the values were obtained:
Assay in all cases: Test D controlled growth environment herbicide test, pre- and postemergence
Assay type in all cases: in vivo
[1] = system: bromegrass, downy (downy bromegrass, Bromus tectorum)
Source text: (§1) Seeds of plant species selected from bluegrass (annual bluegrass, Poa annua), blackgrass (Alopecurus myosuroides), Canada thistle (Cirsium arvense), canarygrass (Phalaris minor), chickweed (common chickweed, Stellaria media), geranium, cutleaf (cutleaf geranium, Geranium dissectum), galium (catchweed bedstraw, Galium aparine), bromegrass, downy (downy bromegrass, Bromus tectorum), field poppy (Papaver rhoeas), field violet (Viola arvensis), foxtail, green (green foxtail, Setaria viridis), deadnettle (henbit deadnettle, Lamium amplexicaule), ryegrass, Italian (Italian ryegrass, Lolium multiflorum), kochia (Kochia scoparia), lambsquarters (Chenopodium album), oilseed rape (Brassica napus), pigweed (Amaranthus retroflexus), chamomile (scentless chamomile, Matricaria inodora), Russian thistle (Salsola kali), speedwell (bird's-eye speedwell, Veronica persica), barley, spring (spring barley, Hordeum vulgare), wheat, spring (spring wheat, Triticum aestivum), buckwheat, wild (wild buckwheat, Polygonum convolvulus), mustard, wild (wild mustard, Sinapis arvensis), oat, wild (wild oat, Avena fatua), radish, wild (wild radish, Raphanus raphanistrum), windgrass (Apera spica-venti), barley, winter (winter barley, Hordeum vulgare), and wheat, winter (winter wheat, Triticum aestivum) were planted into a silt loam soil and treated preemergence with test chemicals formulated in a non-phytotoxic solvent mixture which included a surfactant.
(§2) At the same time, these species were planted in pots containing Redi-Earth® planting medium (Scotts Company, 14111 Scottslawn Road, Marysville, Ohio 43041) comprising spaghnum peat moss, vermiculite, wetting agent and starter nutrients and treated with postemergence applications of the test chemicals formulated in the same manner. Plants ranged in height from 2 to 18 cm (1- to 4-leaf stage). Treated plants and controls were maintained in a controlled growth environment for 14 to 21 d after which time all species were compared to controls and visually evaluated. Plant response ratings, summarized in Table D, are based on a scale of 0 to 100 where 0 is no effect and 100 is complete control. A dash (-) response means no test result.

[2] = system: radish, wild (wild radish, Raphanus raphanistrum)
Source text: as §1, §2

[3] = system: field violet (Viola arvensis)
Source text: as §1, §2

[4] = system: buckwheat, wild (wild buckwheat, Polygonum convolvulus)
Source text: as §1, §2

[5] = system: windgrass (Apera spica-venti)
Source text: as §1, §2

[6] = system: oat, wild (wild oat, Avena fatua)
Source text: as §1, §2

[7] = system: barley, winter (winter barley, Hordeum vulgare)
Source text: as §1, §2

[8] = system: canarygrass (Phalaris minor)
Source text: as §1, §2

kochia (Kochia scoparia) = system: kochia (Kochia scoparia)
Source text: as §1, §2

[9] = system: chickweed (common chickweed, Stellaria media)
Source text: as §1, §2

[10] = system: galium (catchweed bedstraw, Galium aparine)
Source text: as §1, §2

[11] = system: pigweed (Amaranthus retroflexus)
Source text: as §1, §2

[12] = Postemergence, 31 g ai/ha, scale 0 to 100 (0 no effect, 100 complete control)
[13] = Postemergence, 125 g ai/ha, visual rating on scale 0 (no effect) to 100 (complete control), 14 to 21 d
[14] = Postemergence, 250 g ai/ha, scale 0 to 100 (0 no effect, 100 complete control)
[15] = Preemergence, 62 g ai/ha, scale 0 to 100 (0 no effect, 100 complete control)
[16] = Preemergence, 125 g ai/ha, scale 0 to 100 (0 no effect, 100 complete control)
[17] = Preemergence, 250 g ai/ha, scale 0 to 100 (0 no effect, 100 complete control)
[18] = postemergence, 62 g ai/ha, scale 0 to 100, 0 no effect, 100 complete control

## Cc1ccc2sc(C)c(-c3c(O)c(C)nn(C)c3=O)c2c1 [Compound 1, 4-(2,5-dimethylbenzo[b]thien-3-yl)-5-hydroxy-2,6-dimethyl-3(2H)-pyridazinone]
[1]; [12]
  Bromegrass, Downy plant response rating: 0
[1]; [13]
  Plant response rating, Bromegrass, Downy: 10
[1]; [14]
  Plant response rating, Bromegrass, Downy: 20
[1]; Preemergence, 31 g ai/ha
  Plant response rating (scale of 0 to 100), Bromegrass, Downy: 20
[1]; [15]
  Plant response rating, Bromegrass, Downy: 25
[1]; [16]
  Plant response rating, Bromegrass, Downy: 70
[1]; [17]
  Plant response rating, Bromegrass, Downy: 70
[1]; [18]
  Plant response rating, Bromegrass, Downy: 10
[2]; [12]
  Radish, Wild plant response rating: 10
[2]; [13]
  Plant response rating, Radish, Wild: 30
[2]; [14]
  Plant response rating, Radish, Wild: 60
[2]; Preemergence, 31 g ai/ha
  Plant response rating (scale of 0 to 100), Radish, Wild: 0
[2]; [15]
  Plant response rating, Radish, Wild: 0
[2]; [16]
  Plant response rating, Radish, Wild: 15
[2]; [17]
  Plant response rating, Radish, Wild: 100
[2]; [18]
  Plant response rating, Radish, Wild: 20
[3]; [12]
  Field Violet plant response rating: 85
[3]; [13]
  Plant response rating, Field Violet: 90
[3]; [14]
  Plant response rating, Field Violet: 95
[3]; Preemergence, 31 g ai/ha
  Plant response rating (scale of 0 to 100), Field Violet: 95
[3]; [15]
  Plant response rating, Field Violet: 100
[3]; [16]
  Plant response rating, Field Violet: 100
[3]; [17]
  Plant response rating, Field Violet: 100
[3]; [18]
  Plant response rating, Field Violet: 75
[4]; [12]
  Buckwheat, Wild plant response rating: 70
[4]; [13]
  Plant response rating, Buckwheat, Wild: 100
[4]; [14]
  Plant response rating, Buckwheat, Wild: 100
[4]; Preemergence, 31 g ai/ha
  Plant response rating (scale of 0 to 100), Buckwheat, Wild: 5
[4]; [15]
  Plant response rating, Buckwheat, Wild: 10
[4]; [16]
  Plant response rating, Buckwheat, Wild: 65
[4]; [17]
  Plant response rating, Buckwheat, Wild: 100
[4]; [18]
  Plant response rating, Buckwheat, Wild: 75
[5]; [12]
  Windgrass plant response rating: 10
[5]; [13]
  Plant response rating, Windgrass: 50
[5]; [14]
  Plant response rating, Windgrass: 70
[5]; Preemergence, 31 g ai/ha
  Plant response rating (scale of 0 to 100), Windgrass: 15
[5]; [15]
  Plant response rating, Windgrass: 60
[5]; [16]
  Plant response rating, Windgrass: 85
[5]; [17]
  Plant response rating, Windgrass: 100
[5]; [18]
  Plant response rating, Windgrass: 25
[6]; [12]
  Oat, Wild plant response rating: 40
[6]; [13]
  Plant response rating, Oat, Wild: 80
[6]; [14]
  Plant response rating, Oat, Wild: 95
[6]; Preemergence, 31 g ai/ha
  Plant response rating (scale of 0 to 100), Oat, Wild: 75
[6]; [15]
  Plant response rating, Oat, Wild: 70
[6]; [16]
  Plant response rating, Oat, Wild: 95
[6]; [17]
  Plant response rating, Oat, Wild: 100
[6]; [18]
  Plant response rating, Oat, Wild: 70
[7]; [12]
  Plant response rating, Barley, Winter: 5
[7]; [13]
  Plant response rating, Barley, Winter: 5
[7]; [14]
  Plant response rating, Barley, Winter: 10
[7]; Preemergence, 31 g ai/ha
  Plant response rating (scale of 0 to 100), Barley, Winter: 0
[7]; [15]
  Plant response rating, Barley, Winter: 0
[7]; [16]
  Plant response rating, Barley, Winter: 0
[7]; [17]
  Barley, Winter plant response rating: 0
[7]; [18]
  Plant response rating, Barley, Winter: 5
[8]; [12]
  Canarygrass plant response rating: 20
[8]; [13]
  Plant response rating, Canarygrass: 50
[8]; [14]
  Plant response rating, Canarygrass: 70
[8]; Preemergence, 31 g ai/ha
  Plant response rating (scale of 0 to 100), Canarygrass: 40
[8]; [15]
  Plant response rating, Canarygrass: 60
[8]; [16]
  Plant response rating, Canarygrass: 85
[8]; [17]
  Plant response rating, Canarygrass: 90
[8]; [18]
  Plant response rating, Canarygrass: 35
Kochia (Kochia scoparia); [12]
  Kochia plant response rating: 70
Kochia (Kochia scoparia); [13]
  Plant response rating, Kochia: 95
Kochia (Kochia scoparia); [14]
  Plant response rating, Kochia: 100
Kochia (Kochia scoparia); Preemergence, 31 g ai/ha
  Plant response rating (scale of 0 to 100), Kochia: 0
Kochia (Kochia scoparia); [15]
  Plant response rating, Kochia: 0
Kochia (Kochia scoparia); [16]
  Plant response rating, Kochia: 35
Kochia (Kochia scoparia); [17]
  Plant response rating, Kochia: 75
Kochia (Kochia scoparia); [18]
  Plant response rating, Kochia: 85
[9]; [12]
  Chickweed plant response rating: 80
[9]; [13]
  Plant response rating, Chickweed: 90
[9]; [14]
  Plant response rating, Chickweed: 100
[9]; Preemergence, 31 g ai/ha
  Plant response rating (scale of 0 to 100), Chickweed: 100
[9]; [15]
  Plant response rating, Chickweed: 90
[9]; [16]
  Plant response rating, Chickweed: 100
[9]; [17]
  Plant response rating, Chickweed: 100
[9]; [18]
  Plant response rating, Chickweed: 80
[10]; [12]
  Galium plant response rating: 80
[10]; [13]
  Plant response rating, Galium: 95
[10]; [14]
  Plant response rating, Galium: 100
[10]; Preemergence, 31 g ai/ha
  Plant response rating (scale of 0 to 100), Galium: 75
[10]; [15]
  Plant response rating, Galium: 95
[10]; [16]
  Plant response rating, Galium: 100
[10]; [17]
  Plant response rating, Galium: 100
[10]; [18]
  Plant response rating, Galium: 90
[11]; [12]
  Pigweed plant response rating: 80
[11]; [13]
  Plant response rating, Pigweed: 100
[11]; [14]
  Plant response rating, Pigweed: 100
[11]; Preemergence, 31 g ai/ha
  Plant response rating (scale of 0 to 100), Pigweed: 70
[11]; [15]
  Plant response rating, Pigweed: 100
[11]; [16]
  Plant response rating, Pigweed: 100
[11]; [17]
  Plant response rating, Pigweed: 100
[11]; [18]
  Plant response rating, Pigweed: 90
